According to ChEMBL document CHEMBL1201862, “PubChem BioAssay data set” (2004):
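These data come from cells grown in 96-well plates and exposed to compound for 48 hours at five concentrations. Here, GI50 denotes the concentration required for 50% inhibition of growth.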 Calls of active or inactive are those of the source. No stated cut-off is given here; in the data, active = GI50 up to about 1.1 µM and inactive = higher.

Experiments:
Assay in all cases: NCI-60 cell line screen, 48 h
[1] = system: A498
[2] = system: PC-3
[3] = system: NCI-H522
[4] = system: MDA-MB-231
[5] = system: SK-MEL-28
[6] = system: NCI-H226
[7] = system: DU-145
[8] = system: M14
[9] = system: HCC 2998
[10] = system: BT-549
[11] = system: MDA-MB-435
[12] = system: SF-268
[13] = system: Hs-578T
[14] = system: MDA-N
[15] = system: DMS-273
[16] = system: SNB-78
[17] = system: M19-MEL
[18] = system: KM-20L2
[19] = system: DLD-1
[20] = system: HOP-18

Measured: GI50

C=CCNC(=O)CN(CC(=O)OC)C1CCCCC1N(CC(=O)OC)CC(=O)OC (stereo not drawn)
inactive: [1] > 100 µM | [2] > 100 µM | [3] > 100 µM | [4] > 100 µM | [5] > 100 µM | [6] > 100 µM | [7] > 100 µM | [8] > 100 µM | [9] 70 µM | [10] > 100 µM | [11] > 100 µM | [12] > 100 µM | [13] > 100 µM | [14] > 100 µM

CC1OC(CO)(n2cnc3c(N)ncnc32)C(O)C1O (stereo not drawn)
inactive: [1] > 100 µM | [3] > 100 µM | [5] > 100 µM | [6] > 100 µM | [15] > 100 µM | [16] > 100 µM | [17] > 100 µM | [9] > 100 µM | [18] > 100 µM | [12] > 100 µM | [19] > 100 µM | [20] > 100 µM

O=C1C(Cl)N(c2ccccc2Cl)C1c1c[nH]c2ccccc12 (stereo not drawn)
inactive: [3] > 100 µM | [5] > 100 µM | [8] > 100 µM | [17] > 100 µM | [18] > 100 µM | [12] > 100 µM

C=C(/C=C/C=C(\C)CCC=C(C)C)[C@@H]1CC[C@]2([C@H](CCCO)/C(=C(/C)C=O)CC[C@]2(C)O)[C@@H]1O
inactive: [3] 16.7 µM | [5] 15.1 µM | [6] 24 µM | [15] 14.6 µM | [8] 21.7 µM | [16] 17.7 µM | [17] > 10 µM | [9] 20.9 µM | [18] 29.3 µM | [12] 19.2 µM | [19] 18.4 µM | [20] 23.9 µM

CNC(=O)N(C)COC
inactive: [1] > 100 µM | [3] > 100 µM | [5] > 100 µM | [6] > 100 µM | [8] > 100 µM | [16] > 100 µM | [17] > 100 µM | [9] > 100 µM | [18] > 100 µM | [12] > 100 µM | [19] > 100 µM | [20] > 100 µM

O=C(O)CN1CCN(CC(=O)O)CCN(CC(=O)O)CC1
inactive: [1] > 33.6 µM | [2] > 28.5 µM | [3] 5.22 µM | [4] > 31.9 µM | [5] > 72.1 µM | [7] > 100 µM | [8] 38.3 µM | [9] 3.15 µM | [10] > 100 µM | [11] 30.8 µM | [12] 23.6 µM | [13] > 100 µM | [14] 3.7 µM

CC(C)CNC1=NCC(C)S1 (stereo not drawn)
inactive: [1] > 100 µM | [2] > 100 µM | [3] > 100 µM | [4] > 100 µM | [5] > 100 µM | [6] > 100 µM | [7] > 100 µM | [8] > 100 µM | [9] > 100 µM | [10] > 100 µM | [11] > 100 µM | [12] 74.8 µM | [13] > 100 µM | [14] > 100 µM

CO[C@H]1ON=C(c2c(C)cc(C)cc2C)[C@@H]1C1(c2ccccc2)ON=C(c2c(C)cc(C)cc2C)O1 (stereo partly drawn)
inactive: [3] > 100 µM | [5] > 100 µM | [15] > 100 µM | [16] > 100 µM | [17] > 100 µM | [9] > 100 µM | [18] > 100 µM | [12] > 100 µM | [19] > 100 µM | [20] > 100 µM
